Results reported in article PMC6906431, “Selective small molecule PARG inhibitor causes replication fork stalling and cancer cell death” (Nature Communications, 2019).
“And” between values parts separate entries of the source, which are not always exact repeats. Equal entries are not always repeated.

System: PC3 cells
Experiment: Immunoblot of HMW/LMW PARP1 in chromatin fractions
Format: cell-based, human
Details: normalized to DMSO = 1, IR 7 Gy, replicates
Description: To identify suitable cell lines to test PARGi, we evaluated PARG protein expression patterns on a panel of prototypic cancer cell lines. Cells were fractionated into cytoplasmic, nuclear and chromatin, and then PARG expression and localization were evaluated using an anti-PARG antibody (Fig. 4a). A varying level of PARG was detected in three cellular compartments. In prostate adenocarcinoma (PC3) and breast mammary epithelial (MCF-7) cells, PARG level was the highest in the cytoplasm, followed by the nucleus, with the lowest seen in the chromatin fraction. […] The PC3 cell line, with one of the highest levels of PARG expression, was selected for our initial PARGi testing. PC3 cells were treated with either DMSO or JA2131 for 2 h, then exposed to 7 Gy of IR and allowed to recover for a designated time period before harvesting and cell fractionation. Chromatin fractions of the cell lysates were analyzed by immunoblotting with PARP1 specific antibody (Fig. 4b), and the PARylation states of PARP1 were monitored as a marker for PARG inhibition. […] In these cells, PARylated PARP1 in response to PARG inhibition appeared as a discrete HMW (DHMW) proteins with limited smearing, as observed previously. […] To assess whether DHMW was due to PARylation and not any other post-translational modifications, chromatin fractions of the PARGi-treated PC3 cell-lysates were treated with purified PARG, followed by anti-PARP1 western blotting. This led to the restoration of LMW PARP1, indicating PARylation was indeed causing the DHMW (Fig. 4c, d). Thus, a dynamic equilibrium between DHMW and LMW nuclear PARP1 exists in cells, and PARGi shifts this equilibrium towards DHMW.
Fig. 4 JA2131 induces hyperPARylation of PARP1. a Subcellular PARG protein expression patterns in cultured cells. […] Chromatin bound cell-extracts were analyzed with anti-PARP1 antibody (upper panel) followed by probing with total Histone H2AX (t-H2AX, lower panel) as the loading control. c DMSO or 2131-treated PC3 cells were irradiated and recovered for 2 h as above, chromatin fractions were then incubated with or without purified PARG enzyme (±PARG) for 30 min at 37 °C then immunoblotted with anti-PARP1 (upper panel) and then with anti-histone H3 (lower panel) as loading control. d Quantitative analysis of western blot of b, where expression of PARP1 levels in DMSO treated was normalized to 1. […]

[1] = chromatin fraction incubated with purified PARG (+)

In the case of `Cn1c(=S)c2[nH]c(SCCN3CCOCC3)nc2n(C)c1=O` [JA2131], the “HMW PARP1” value [1] was 0.2746 and 0.8185 and 0.3259, the “LMW PARP1” value [1] was 1.147 and 1.092 (2×) and the “HMW PARP1” value (without added purified PARG) was 0.6751 and 1.387 and 4.419. For the same compound, the “LMW PARP1” value (without added purified PARG) was 0.7041 and 0.9592 (2×).
